Measured values: ChEMBL document CHEMBL6087437 (J Med Chem, 2025)
Active and inactive are the calls of the source. No cut-off for these calls is given here.

Experiments:
Influenza A virus = assay: Antiviral activity against pseudotyped Influenza A virus A/Goose/Qinghai/59/05(H5N1) infected in human A549 cells assessed as inhibition of viral entry incubated for 48 hrs by Neolite reporter gene assay; format: functional, organism-based
[1] = AUC in female C57BL/6J mouse at 50 mg/kg, ip; format: ADME, organism-based; conditions: in vivo
HeLa = assay: Cytotoxicity against human HeLa cells by Celltiter-Glo luminescent cell viability assay; format: toxicity, cell-based
[2] = Selectivity index, ratio of CC50 for human HeLa cells to EC50 for antiviral activity against wildtype Ebolavirus infected in human HeLa cells; format: toxicity, cell-based; conditions: read-out: Ratio CC50/EC50
[3] = Metabolic stability in human liver microsomes assessed as parent compound remaining measured after 60 mins in presence of NADPH by LC-MS/MS analysis; format: ADME, Microsome; conditions: read-out: Stability
A549 = assay: Induction of phospholipidosis in human A549 cells at 10 uM incubated for 48 hrs by Hoechst 33342 staining based fluorescence imaging analysis; format: functional, cell-based
Tai Forest ebolavirus = assay: Antiviral activity against pseudotyped Tai Forest ebolavirus expressing glycoprotein infected in human A549 cells assessed as inhibition of viral entry incubated for 48 hrs by Neolite reporter gene assay; format: functional, organism-based; conditions: A549, 48 h
Sudan ebolavirus = assay: Antiviral activity against pseudotyped Sudan ebolavirus expressing glycoprotein infected in human A549 cells assessed as inhibition of viral entry incubated for 48 hrs by Neolite reporter gene assay; format: functional, organism-based; conditions: A549, 48 h
[4] = Clearance in female C57BL/6J mouse at 50 mg/kg, ip; format: ADME, organism-based; conditions: in vivo
Ebolavirus [5] = assay: Antiviral activity against pseudotyped Ebola virus expressing glycoprotein infected in human A549 cells assessed as inhibition of viral entry incubated for 48 hrs by Neolite reporter gene assay; format: functional, organism-based; conditions: Orthoebolavirus, A549, 48 h
[6] = Stability in human plasma assessed as parent compound remaining at 2 uM measured after 60 mins by LC-MS/MS analysis; format: ADME, cell-free; conditions: read-out: Stability
[7] = target: Voltage-gated inwardly rectifying potassium channel KCNH2 (Homo sapiens, UniProt Q12809); assay: Inhibition of human ERG; format: toxicity
Sequence of Voltage-gated inwardly rectifying potassium channel KCNH2 (Q12809 whole entry): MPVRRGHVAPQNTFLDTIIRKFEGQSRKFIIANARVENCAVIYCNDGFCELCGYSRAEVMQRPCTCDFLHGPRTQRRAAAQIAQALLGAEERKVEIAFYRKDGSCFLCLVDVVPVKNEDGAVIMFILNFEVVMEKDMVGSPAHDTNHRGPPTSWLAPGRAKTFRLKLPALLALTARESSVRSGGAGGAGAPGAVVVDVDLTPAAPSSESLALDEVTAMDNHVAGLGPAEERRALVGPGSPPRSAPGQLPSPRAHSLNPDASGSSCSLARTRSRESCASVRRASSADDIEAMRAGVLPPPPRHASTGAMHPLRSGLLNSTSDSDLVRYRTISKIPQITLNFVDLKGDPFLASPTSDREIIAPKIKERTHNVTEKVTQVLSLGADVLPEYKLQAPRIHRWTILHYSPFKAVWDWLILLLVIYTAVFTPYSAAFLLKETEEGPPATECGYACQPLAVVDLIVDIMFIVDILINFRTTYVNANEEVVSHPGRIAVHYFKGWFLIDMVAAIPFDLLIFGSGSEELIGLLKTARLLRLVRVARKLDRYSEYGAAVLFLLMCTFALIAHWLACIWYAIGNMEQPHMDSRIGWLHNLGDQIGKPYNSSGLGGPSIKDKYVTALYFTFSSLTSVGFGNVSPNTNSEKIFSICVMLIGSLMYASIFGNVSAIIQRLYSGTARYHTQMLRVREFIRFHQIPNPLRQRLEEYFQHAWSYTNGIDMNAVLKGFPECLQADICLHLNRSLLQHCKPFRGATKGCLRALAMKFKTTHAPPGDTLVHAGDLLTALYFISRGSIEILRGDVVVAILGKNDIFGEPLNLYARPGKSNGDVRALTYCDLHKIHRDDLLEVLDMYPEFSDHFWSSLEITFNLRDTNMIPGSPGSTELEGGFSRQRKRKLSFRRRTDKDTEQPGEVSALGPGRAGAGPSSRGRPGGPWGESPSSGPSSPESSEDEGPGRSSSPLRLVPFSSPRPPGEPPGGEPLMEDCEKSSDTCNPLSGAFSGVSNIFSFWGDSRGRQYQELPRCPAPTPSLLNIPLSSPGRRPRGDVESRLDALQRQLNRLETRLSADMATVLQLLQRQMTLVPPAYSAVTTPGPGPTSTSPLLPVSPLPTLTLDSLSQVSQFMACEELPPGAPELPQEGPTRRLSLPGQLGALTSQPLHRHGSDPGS

Reston ebolavirus = assay: Antiviral activity against pseudotyped Reston ebolavirus expressing glycoprotein infected in human A549 cells assessed as inhibition of viral entry incubated for 48 hrs by Neolite reporter gene assay; format: functional, organism-based; conditions: A549, 48 h
CYP2C9 = CYP2C9 (Homo sapiens, UniProt P11712); assay: Inhibition of CYP2C9 in human liver microsomes using tolbutamide as substrate at 10 uM preincubated for 5 mins followed by substrate addition and measured after 20 mins by LC-MS analysis relative to control; format: ADME, Microsome; conditions: probe tolbutamide, time 25 min
Sequence of CYP2C9 (P11712 whole entry): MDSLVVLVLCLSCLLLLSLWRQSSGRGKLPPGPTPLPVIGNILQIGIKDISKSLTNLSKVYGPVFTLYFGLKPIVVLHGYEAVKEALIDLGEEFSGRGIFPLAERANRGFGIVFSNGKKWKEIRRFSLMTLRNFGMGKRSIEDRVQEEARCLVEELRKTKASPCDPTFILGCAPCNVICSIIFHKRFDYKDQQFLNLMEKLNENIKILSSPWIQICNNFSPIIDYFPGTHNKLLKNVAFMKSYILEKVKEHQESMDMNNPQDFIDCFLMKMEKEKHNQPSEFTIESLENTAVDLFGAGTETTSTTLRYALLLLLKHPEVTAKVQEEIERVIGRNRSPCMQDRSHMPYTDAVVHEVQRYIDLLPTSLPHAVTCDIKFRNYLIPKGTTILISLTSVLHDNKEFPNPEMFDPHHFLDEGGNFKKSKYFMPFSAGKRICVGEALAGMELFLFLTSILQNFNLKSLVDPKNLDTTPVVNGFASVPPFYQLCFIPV

Zaire ebolavirus = assay: Antiviral activity against pseudotyped Zaire ebolavirus expressing glycoprotein infected in human A549 cells assessed as inhibition of viral entry incubated for 48 hrs by Neolite reporter gene assay; format: functional, organism-based; conditions: A549, 48 h
[8] = Cmax in female C57BL/6J mouse at 50 mg/kg, ip; format: ADME, organism-based; conditions: in vivo
CYP2D6 = CYP2D6 (Homo sapiens, UniProt P10635); assay: Inhibition of CYP2D6 in human liver microsomes using dextromethorphan as substrate at 10 uM preincubated for 5 mins followed by substrate addition and measured after 20 mins by LC-MS analysis relative to control; format: ADME, Microsome; conditions: probe dextromethorphan, time 25 min
Sequence of CYP2D6 (P10635 whole entry): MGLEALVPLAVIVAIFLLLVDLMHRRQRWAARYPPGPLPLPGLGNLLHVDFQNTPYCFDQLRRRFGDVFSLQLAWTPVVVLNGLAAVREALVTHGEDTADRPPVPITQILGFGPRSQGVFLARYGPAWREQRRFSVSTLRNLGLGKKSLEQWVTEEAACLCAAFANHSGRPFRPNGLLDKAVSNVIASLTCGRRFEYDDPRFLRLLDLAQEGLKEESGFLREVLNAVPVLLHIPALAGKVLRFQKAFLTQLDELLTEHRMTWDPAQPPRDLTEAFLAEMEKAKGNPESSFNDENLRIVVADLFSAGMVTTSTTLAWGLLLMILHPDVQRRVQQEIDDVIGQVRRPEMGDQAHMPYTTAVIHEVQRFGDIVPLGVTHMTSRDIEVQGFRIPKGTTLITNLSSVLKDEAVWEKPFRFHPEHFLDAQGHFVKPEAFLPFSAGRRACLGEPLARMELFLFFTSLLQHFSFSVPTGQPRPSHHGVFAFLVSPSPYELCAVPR

CYP1A2 = target: T1, CYP1A2 (Homo sapiens, UniProt P05177); assay: Inhibition of CYP1A2 in human liver microsomes using phenacetin as substrate at 10 uM preincubated for 5 mins followed by substrate addition and measured after 20 mins by LC-MS analysis relative to control; format: ADME, Microsome; conditions: probe phenacetin, time 25 min
T1 sequence (P05177 whole entry): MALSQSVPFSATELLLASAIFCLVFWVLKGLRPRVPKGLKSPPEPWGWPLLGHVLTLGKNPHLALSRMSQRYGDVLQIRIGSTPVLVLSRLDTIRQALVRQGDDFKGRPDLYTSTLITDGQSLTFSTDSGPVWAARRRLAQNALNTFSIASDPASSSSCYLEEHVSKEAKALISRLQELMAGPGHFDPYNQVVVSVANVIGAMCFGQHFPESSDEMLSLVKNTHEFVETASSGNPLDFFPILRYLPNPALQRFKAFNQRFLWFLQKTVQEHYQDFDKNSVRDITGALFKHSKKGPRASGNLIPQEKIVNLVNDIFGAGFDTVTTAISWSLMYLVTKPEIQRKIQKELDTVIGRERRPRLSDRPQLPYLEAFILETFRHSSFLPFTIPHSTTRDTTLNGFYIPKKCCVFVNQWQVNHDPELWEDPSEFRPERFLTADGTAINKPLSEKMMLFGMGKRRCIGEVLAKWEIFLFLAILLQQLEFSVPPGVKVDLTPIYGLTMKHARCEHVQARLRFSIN

Bundibugyo virus = assay: Antiviral activity against pseudotyped Bundibugyo ebolavirus expressing glycoprotein infected in human A549 cells assessed as inhibition of viral entry incubated for 48 hrs by Neolite reporter gene assay; format: functional, organism-based; conditions: A549, 48 h
[9] = Half-life in female C57BL/6J mouse at 50 mg/kg, ip; format: ADME, organism-based; conditions: in vivo
[10] = Stability in mouse plasma assessed as parent compound remaining at 2 uM measured after 60 mins by LC-MS/MS analysis; format: ADME, cell-free; conditions: read-out: Stability
[11] = Cmax in female C57BL/6J mouse at 25 mg/kg, ip; format: ADME, organism-based; conditions: in vivo
[12] = Clearance in female C57BL/6J mouse at 25 mg/kg, ip; format: ADME, organism-based; conditions: in vivo
[13] = Metabolic stability in BALB/c mouse liver microsomes assessed as parent compound remaining measured after 60 mins in presence of NADPH by LC-MS/MS analysis; format: ADME, Microsome; conditions: read-out: Stability
Ebolavirus [14] = assay: Antiviral activity against wildtype Ebola virus infected in human HeLa cells incubated for 40 hrs by Hoechst 33342 staining based Cytation-1 automated microscopic analysis; format: functional, organism-based; conditions: Orthoebolavirus
[15] = Half-life in female C57BL/6J mouse at 25 mg/kg, ip; format: ADME, organism-based; conditions: in vivo
[16] = Tmax in female C57BL/6J mouse at 25 mg/kg, ip; format: ADME, organism-based; conditions: in vivo
Marburgvirus = assay: Antiviral activity against pseudotyped Marburg virus expressing glycoprotein infected in human A549 cells assessed as inhibition of viral entry incubated for 48 hrs by Neolite reporter gene assay; format: functional, organism-based; conditions: Orthomarburgvirus, A549, 48 h
[17] = Selectivity index, ratio of CC50 for human A549 cells to EC50 for pseudotyped Ebola virus expressing glycoprotein infected in human A549 cells; format: toxicity, cell-based; conditions: read-out: Ratio CC50/EC50
[18] = Tmax in female C57BL/6J mouse at 50 mg/kg, ip; format: ADME, organism-based; conditions: in vivo
[19] = AUC in female C57BL/6J mouse at 25 mg/kg, ip; format: ADME, organism-based; conditions: in vivo
[20] = tested on: Vesicular stomatitis virus; assay: Antiviral activity against pseudotyped vesicular stomatitis virus expressing glycoprotein infected in human A549 cells assessed as inhibition of viral entry incubated for 48 hrs by Neolite reporter gene assay; format: functional, organism-based
CYP3A4 = CYP3A4 (Homo sapiens, UniProt P08684); assay: Inhibition of CYP3A4 in human liver microsomes using midazolam as substrate at 10 uM preincubated for 5 mins followed by substrate addition and measured after 20 mins by LC-MS analysis relative to control; format: ADME, Microsome; conditions: probe midazolam, time 25 min
Sequence of CYP3A4 (P08684 whole entry): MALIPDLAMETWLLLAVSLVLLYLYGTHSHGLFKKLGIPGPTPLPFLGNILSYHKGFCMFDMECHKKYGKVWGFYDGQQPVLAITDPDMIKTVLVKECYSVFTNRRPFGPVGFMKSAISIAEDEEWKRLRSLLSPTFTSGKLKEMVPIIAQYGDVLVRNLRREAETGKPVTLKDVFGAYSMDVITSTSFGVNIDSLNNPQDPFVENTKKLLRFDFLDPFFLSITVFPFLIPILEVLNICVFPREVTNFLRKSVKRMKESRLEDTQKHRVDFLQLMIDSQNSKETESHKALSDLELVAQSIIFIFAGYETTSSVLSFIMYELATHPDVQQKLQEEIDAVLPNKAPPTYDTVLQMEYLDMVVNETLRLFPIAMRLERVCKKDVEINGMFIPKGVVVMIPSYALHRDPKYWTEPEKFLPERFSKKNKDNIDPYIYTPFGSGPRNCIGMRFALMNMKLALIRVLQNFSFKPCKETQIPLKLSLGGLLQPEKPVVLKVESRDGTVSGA

[21] = Toxicity in female C57BL/6J mouse assessed as adverse effect at 25 to 50 mg/kg, ip; format: organism-based; conditions: in vivo, dose 25-50 mg/kg

Compound | inhibition (Influenza A virus) | AUC [1] | CC50 (HeLa) | remaining at 1 h [3] | EC50 (Tai Forest ebolavirus) | EC50 (Sudan ebolavirus) | CL/F [4] | EC50 (Ebolavirus [5]) | remaining at 1 h, 2 µM [6] | IC50 [7] | EC50 (Reston ebolavirus) | inhibition at 20 min, 10 µM (CYP2C9) | EC50 (Zaire ebolavirus) | Cmax [8] | inhibition at 20 min, 10 µM (CYP2D6) | inhibition at 20 min, 10 µM (CYP1A2) | EC50 (Bundibugyo virus) | half-life [9] | remaining at 1 h, 2 µM [10] | Cmax [11] | further results
O=C(Nc1ccc(N2CCC3(CCC3)CC2)c(C(F)(F)F)c1)c1ccc(C(=O)N2C[C@@H]3C[C@H]2CO3)nc1 | Weak_effect | 57800 ng·h/mL | 47700 nM | 83.6% | 110 nM | 890 nM | 14.4 mL/min/kg | 160 nM | ~100% | 9400 nM | 210 nM | 56.6% | 160 nM | 14600 ng/mL | 24.9% | 13.5% | 210 nM | 1.9 h | 97% | 5370 ng/mL | selectivity ratio [2]: 65; Activity (A549): inactive; CL/F [12]: 20.2 mL/min/kg; remaining at 1 h [13]: 84%; EC50 (Ebolavirus [14]): 730 nM; half-life [15]: 1.4 h; Tmax [16]: 1.7 h; EC50 (Marburgvirus): 2240 nM; selectivity ratio [17]: 258; Tmax [18]: 0.7 h; AUC [19]: 20700 ng·h/mL; inhibition [20]: Weak_effect
O=C(Nc1ccc(N2CCC3(CCC3)CC2)c(C(F)(F)F)c1)c1ccc(CN2C[C@@H]3C[C@H]2CO3)nc1 | Weak_effect | 34400 ng·h/mL | 19100 nM | 60% | 290 nM | 2140 nM | 24.3 mL/min/kg | 120 nM | ~100% | 1500 nM | 300 nM | 66.4% | 120 nM | 6790 ng/mL | 35.2% | 5.4% | 840 nM | 4.8 h | 90% | 2170 ng/mL | inhibition at 20 min, 10 µM (CYP3A4): 4.9%; Activity [21]: Non-toxic; CL/F [12]: 29.2 mL/min/kg; remaining at 1 h [13]: 77%; EC50 (Ebolavirus [14]): 440 nM; half-life [15]: 3.4 h; Tmax [16]: 0.5 h; EC50 (Marburgvirus): 680 nM; Tmax [18]: 1 h; AUC [19]: 14300 ng·h/mL; inhibition [20]: Weak_effect
